Assay results: ChEMBL document CHEMBL3774385, “Small molecule glycoconjugates with anticancer activity” (Eur J Med Chem, 2016)
Values belong to the molecule of their own block, whether it stands above or below them. Activity calls are given as the source filed them. No cut-off for these calls is given here.

Legend:
[1] = Antiproliferative activity against p53 expressing human HCT116 cells after 96 hrs by MTS assay; type: functional, cell-based; details: HCT-116, 96 h
[2] = Antiproliferative activity against p53 deficient human HCT116 cells after 96 hrs by MTS assay; type: functional, cell-based; details: HCT-116, 96 h
NHDF = assay: Cytotoxicity against human NHDF cells after 96 hrs by MTS assay; type: cell-based
HCT-116 [3] = assay: Antiproliferative activity against p53 expressing human HCT116 cells at IC50 after 3 to 96 hrs by MTS assay in presence of 10 to 50 uM glucose; type: functional, cell-based
[4] = Binding affinity to Zn2+ assessed as compound-metal complex formation at compound to metal ratio of 1:0, 1:1, 2:1, 3:1, 4:1 and 5:1 after 30 mins by UV-visible spectrophotometry
[5] = Binding affinity to Cu2+ assessed as compound-metal complex formation at compound to metal ratio of 1:0, 1:1, 2:1, 3:1, 4:1 and 5:1 after 30 mins by UV-visible spectrophotometry
HCT-116 [6] = assay: Induction of reactive oxygen species generation in p53 expressing human HCT116 cells at 2 times IC50 for 24 hrs by inverted fluorescent microscopy; type: functional, cell-based
HCT-116 [7] = assay: Induction of intracellular reactive oxygen species generation in p53 expressing human HCT116 cells at IC50 after 12 hrs by fluorescence-based plate reader analysis; type: functional, cell-based
HCT-116 [8] = assay: Decrease in GSH level in p53 expressing human HCT116 cells at IC50 after 12 hrs by luminescence analysis; type: functional, cell-based
HCT-116 [9] = assay: Induction of apoptosis in p53 expressing human HCT116 cells assessed as caspase-3/7 activation at IC50 after 30 to 48 hrs by luminescence assay; type: functional, cell-based
HCT-116 [10] = assay: Induction of apoptosis in p53 deficient human HCT116 cells assessed as caspase-3/7 activation at IC50 after 30 to 48 hrs by luminescence assay; type: functional, cell-based
HCT-116 [11] = assay: Induction of apoptosis in p53 expressing human HCT116 cells assessed as early apoptotic cells at IC50 after 48 hrs by acridine orange/ethidium bromide staining-based epifluorescence microscopy; type: functional, cell-based
HCT-116 [12] = assay: Induction of apoptosis in p53 expressing human HCT116 cells assessed as late apoptotic cells at IC50 after 48 hrs by acridine orange/ethidium bromide staining-based epifluorescence microscopy; type: functional, cell-based
Calf thymus DNA = assay: Binding affinity to calf thymus DNA assessed as hypochromism at 3 to 25 uM after 1.5 hrs by UV-visible spectrophotometry; type: nucleic-acid assay; details: Bos taurus
[13] = Antiproliferative activity against p53 deficient human HCT116 cells at IC50 after 96 hrs by MTS assay in presence of 20 uM CuCl2; type: functional, HCT-116
HCT-116 [14] = assay: Antiproliferative activity against p53 deficient human HCT116 cells at IC50 after 96 hrs by MTS assay in presence of 50 uM ZnCl2; type: functional, cell-based
[15] = Antiproliferative activity against p53 expressing human HCT116 cells at IC50 after 96 hrs by MTS assay in presence of 20 uM CuCl2; type: functional, HCT-116
HCT-116 [16] = assay: Antiproliferative activity against p53 expressing human HCT116 cells at IC50 after 96 hrs by MTS assay in presence of 50 uM of ZnCl2; type: functional, cell-based
HCT-116 [17] = assay: Induction of intracellular reactive oxygen species generation in p53 expressing human HCT116 cells at IC50 after 6 hrs by fluorescence-based plate reader analysis; type: functional, cell-based

SMILES: CC(=O)OC[C@H]1O[C@@H](SC(=O)c2ccc3ccc(C)nc3c2O)[C@H](OC(C)=O)[C@@H](OC(C)=O)[C@@H]1OC(C)=O
IC50 [1]: > 25 µM | IC50 [2]: > 25 µM

SMILES: CC(=O)OC[C@H]1O[C@@H](SC(=O)c2ccc3ccc(C)nc3c2O)[C@H](OC(C)=O)[C@@H](OC(C)=O)[C@H]1OC(C)=O
IC50 [1]: > 25 µM | IC50 [2]: > 25 µM

SMILES: COc1cccc2c1C(=O)c1c(O)c3c(c(O)c1C2=O)C[C@@](O)(C(=O)CO)C[C@@H]3O[C@H]1C[C@H](N)[C@H](O)[C@H](C)O1 [DOXORUBICIN]
IC50 [1]: 0.34 µM | IC50 [2]: 0.38 µM | IC50 (NHDF): 3.38 µM

SMILES: CC(=O)OC[C@H]1O[C@@H](Sc2ccc(N)cn2)[C@H](OC(C)=O)[C@@H](OC(C)=O)[C@@H]1OC(C)=O
IC50 [1]: > 150 µM | IC50 [2]: > 150 µM

SMILES: CC(=O)OC[C@H]1O[C@@H](Sc2ccc(N)cn2)[C@H](OC(C)=O)[C@@H](OC(C)=O)[C@H]1OC(C)=O
IC50 [1]: > 150 µM | IC50 [2]: > 150 µM

Activity [4]: Active | Activity [5]: Active | Activity (Calf thymus DNA): 9%
SMILES: Cc1ccc2ccc(C(=O)N[C@@H]3O[C@H](COCc4ccccc4)[C@H](OCc4ccccc4)[C@H](OCc4ccccc4)[C@H]3OCc3ccccc3)c(O)c2n1
Activity (HCT-116 [3]): inactive | Activity (HCT-116 [6]): Active | Activity (HCT-116 [7]): Active | Activity (HCT-116 [8]): Active | Activity (HCT-116 [9]): Active | Activity (HCT-116 [10]): Active | Activity (HCT-116 [11]): Active | Activity (HCT-116 [12]): Active | IC50 [1]: 11.6 µM | IC50 [2]: 11.7 µM | IC50 (NHDF): 18.6 µM

SMILES: Cc1ccc2c(O)c(C(=O)O)ccc2n1
IC50 [1]: > 750 µM | IC50 [2]: > 750 µM

SMILES: CC(=O)OC[C@H]1O[C@@H](N)[C@H](OC(C)=O)[C@@H](OC(C)=O)[C@@H]1OC(C)=O
IC50 [1]: > 450 µM | IC50 [2]: > 300 µM

SMILES: CC(=O)OC[C@H]1O[C@@H](Sc2ccc(NC(=O)c3ccc4nc(C)ccc4c3O)cc2)[C@H](OC(C)=O)[C@@H](OC(C)=O)[C@@H]1OC(C)=O
IC50 [1]: > 25 µM | IC50 [2]: > 25 µM

SMILES: CC(=O)OC[C@H]1O[C@@H](SC(=O)c2ccc3nc(C)ccc3c2O)[C@H](OC(C)=O)[C@@H](OC(C)=O)[C@H]1OC(C)=O
IC50 [1]: > 25 µM | IC50 [2]: > 25 µM

SMILES: CC(=O)OC[C@H]1O[C@@H](Sc2ccc(N)cc2)[C@H](OC(C)=O)[C@@H](OC(C)=O)[C@H]1OC(C)=O
IC50 [1]: > 150 µM | IC50 [2]: > 150 µM

Activity [4]: Active | Activity [5]: Active | Activity (Calf thymus DNA): 17.2%
SMILES: CC(=O)OC[C@H]1O[C@@H](Sc2ccc(NC(=O)c3ccc4ccc(C)nc4c3O)cc2)[C@H](OC(C)=O)[C@@H](OC(C)=O)[C@H]1OC(C)=O
Activity (HCT-116 [3]): inactive | Activity (HCT-116 [6]): Active | Activity (HCT-116 [9]): Active | Activity (HCT-116 [11]): Active | Activity (HCT-116 [12]): Active | IC50 [1]: 12.6 µM | IC50 [2]: 8.94 µM | IC50 (NHDF): 13.3 µM

SMILES: CC(=O)OC[C@H]1O[C@@H](Sc2ccc(N)cc2)[C@H](OC(C)=O)[C@@H](OC(C)=O)[C@@H]1OC(C)=O
IC50 [1]: > 150 µM | IC50 [2]: > 150 µM

SMILES: Cc1ccc2ccc(C(=O)N[C@@H]3O[C@H](CO)[C@@H](O)[C@H](O)[C@H]3O)c(O)c2n1
IC50 [1]: > 750 µM | IC50 [2]: > 750 µM

SMILES: CC(=O)OC[C@H]1O[C@@H](S)[C@H](OC(C)=O)[C@@H](OC(C)=O)[C@@H]1OC(C)=O
IC50 [1]: > 750 µM | IC50 [2]: > 500 µM

Activity [4]: Active | Activity [5]: Active | Activity (Calf thymus DNA): 41.5%
SMILES: CC(=O)OC[C@H]1O[C@@H](Sc2ccc(NC(=O)c3ccc4ccc(C)nc4c3O)cn2)[C@H](OC(C)=O)[C@@H](OC(C)=O)[C@@H]1OC(C)=O
Activity (HCT-116 [3]): inactive | Activity [13]: 75% | Activity (HCT-116 [14]): inactive | Activity (HCT-116 [6]): Active | Activity (HCT-116 [7]): Active | Activity (HCT-116 [8]): Active | Activity (HCT-116 [9]): inactive | Activity (HCT-116 [10]): inactive | Activity (HCT-116 [11]): Active | Activity (HCT-116 [12]): Active | IC50 [1]: 4.88 µM | IC50 [2]: 4.42 µM | IC50 (NHDF): 11.5 µM

SMILES: CC(=O)OC[C@H]1O[C@@H](SC(=O)c2ccc3nc(C)ccc3c2O)[C@H](OC(C)=O)[C@@H](OC(C)=O)[C@@H]1OC(C)=O
IC50 [1]: > 25 µM | IC50 [2]: > 25 µM

SMILES: Cc1ccc2ccc(C(=O)O)c(O)c2n1
IC50 [1]: > 750 µM | IC50 [2]: > 750 µM

Activity [4]: Active | Activity [5]: Active | Activity (Calf thymus DNA): 26.1%
SMILES: CC(=O)OC[C@H]1O[C@@H](Sc2ccc(NC(=O)c3ccc4ccc(C)nc4c3O)cn2)[C@H](OC(C)=O)[C@@H](OC(C)=O)[C@H]1OC(C)=O
Activity (HCT-116 [3]): inactive | Activity (HCT-116 [6]): Active | Activity (HCT-116 [9]): inactive | Activity (HCT-116 [10]): inactive | Activity (HCT-116 [11]): Active | Activity (HCT-116 [12]): Active | IC50 [1]: 7.86 µM | IC50 [2]: 7.05 µM | IC50 (NHDF): 9.32 µM

Activity [4]: Active | Activity [5]: Active | Activity (Calf thymus DNA): 10.7%
SMILES: CC(=O)OC[C@H]1O[C@@H](Sc2ccc(NC(=O)c3ccc4ccc(C)nc4c3O)cc2)[C@H](OC(C)=O)[C@@H](OC(C)=O)[C@@H]1OC(C)=O
Activity (HCT-116 [6]): Active | Activity (HCT-116 [9]): inactive | Activity (HCT-116 [10]): inactive | Activity (HCT-116 [11]): Active | Activity (HCT-116 [12]): Active | IC50 [1]: 12 µM | IC50 [2]: 10.7 µM | IC50 (NHDF): 12.4 µM

Activity [4]: Active | Activity [5]: Active | Activity (Calf thymus DNA): 16.2%
SMILES: CC(=O)OC[C@H]1O[C@@H](NC(=O)c2ccc3ccc(C)nc3c2O)[C@H](OC(C)=O)[C@@H](OC(C)=O)[C@@H]1OC(C)=O
Activity [15]: 50% | Activity (HCT-116 [16]): inactive | Activity (HCT-116 [6]): Active | Activity (HCT-116 [17]): Active | Activity (HCT-116 [8]): Active | Activity (HCT-116 [9]): Active | Activity (HCT-116 [11]): Active | Activity (HCT-116 [12]): Active | IC50 [1]: 13.6 µM | IC50 [2]: 15.1 µM | IC50 (NHDF): 23.6 µM
